This is an account of results in patent US12509437B2, “Substituted thiophene carboxamides and derivatives thereof as microbicides” (Bayer Aktiengesellschaft, priority 2019, dated 2025).

Each structure is given as a SMILES string.

Data set [1] deals with Colletotrichum lindemuthianum. In words: In vivo preventive test on Colletotrichum lindemuthianum (Anthracnose on bean). The settings on record: sprayed 72 hours before inoculation, evaluated 6 days after inoculation; for pest or weed control at 500 ppm / pest or weed control at 125 ppm / pest or weed control at 31 ppm: Colletotrichum lindemuthianum, 144 h, read-out: efficacy; for pest or weed control at 125 ppm: 125 ppm of active ingredient; for pest or weed control at 31 ppm: 31 ppm of active ingredient. The method, then:
(§1) The tested active ingredients were prepared by homogenization in a mixture of acetone/Dimethyl sulfoxide/Tween®, and then diluted with water to obtain the desired active material concentration.
(§2) The young plants of bean were treated by spraying the active ingredient prepared as described above. Control plants were treated only with an aqueous solution of acetone/Dimethyl sulfoxide/Tween®.
After 72 hours, the plants were contaminated by spraying the leaves with an aqueous suspension of Colletotrichum lindemuthianum spores. The contaminated bean plants were incubated for 24 hours at 20° C. and at 100% relative humidity and then for 5 days at 20° C. and at 90% relative humidity.
The test was evaluated 6 days after the inoculation. 0% means an efficacy which corresponds to that of the control plants while an efficacy of 100% means that no disease was observed.

The test system of data set [2] is salicylate responsive promoter sequence of the PR1 (pathogenesis-related protein I) gene (AT2G14610). In words: Induction of defense gene expression in Arabidopsis thaliana (PR1 promoter-GFP reporter plants). It counts as in vivo. The settings on record: 72 h, 3rd day after spraying, mock treated leaves set as 1.00, read-out: relative fluorescence value. The protocol: Arabidopsis thaliana reporter plants containing the coding sequence of a green fluorescent protein (GFP) linked to the salicylate responsive promoter sequence of the PR1 (pathogenesis-related protein I) gene (AT2G14610) were grown for five days and then sprayed with compounds. On the 3rd day after spraying, plant fluorescence was assessed with a MacroFluo instrument from Leica Microsystems (Wetzlar, Germany). Fluorescences were quantified with the Meta-Morph Microscopy Automation & Image Analysis Software (Molecular Devices, Sunnyvale, Calif., United States). Background fluorescence in mock treated leaves was set as 1.00.

Data set [3] can be described thus: LogP by HPLC on reversed phase columns (EEC directive 79/831 Annex V.A8). The settings on record: reversed phase HPLC columns; method [a]. The data set is classed as physicochemical. An outline of the steps: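 LogP derived from retention time, interpolated linearly between bracketing alkan-2-one standards (3 to 16 carbons). Where several values exist for one method, all are listed with "+"; UV spectra 200–400 nm at peak maxima gave lambda-max.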

For another data set, the system named is Peronospora parasitica. In words: In vivo preventive test on Peronospora parasitica (Crucifer downy mildew) on cabbage. The conditions noted are these: Hyaloperonospora parasitica, 120 h, sprayed 72 hours before inoculation, evaluated 5 days after inoculation, read-out: efficacy; for pest or weed control at 31 ppm: 31 ppm of active ingredient; for pest or weed control at 125 ppm: 125 ppm of active ingredient; for pest or weed control at 500 ppm: 500 ppm of active ingredient. The protocol:
as §1
(§3) The young plants of cabbage were treated by spraying the active ingredient prepared as described above. Control plants were treated only with an aqueous solution of acetone/Dimethyl sulfoxide/Tween®.
After 72 hours, the plants were contaminated by spraying the leaves with an aqueous suspension of Peronospora parasitica spores. The contaminated cabbage plants were incubated for 5 days at 20° C. and at 100% relative humidity.
The test was evaluated 5 days after the inoculation. 0% means an efficacy which corresponds to that of the control plants while an efficacy of 100% means that no disease was observed.

A further data set concerns Uromyces appendiculatus. In words: In vivo preventive test on Uromyces appendiculatus (bean rust). The settings on record: 240 h, sprayed 72 hours before inoculation, evaluated 10 days after inoculation, read-out: efficacy; for pest or weed control at 125 ppm: 125 ppm of active ingredient; for pest or weed control at 500 ppm: 500 ppm of active ingredient; for pest or weed control at 31 ppm: 31 ppm of active ingredient. The protocol:
as §1, §2
After 72 hours, the plants were contaminated by spraying the leaves with an aqueous suspension of Uromyces appendiculatus spores. The contaminated bean plants were incubated for 24 hours at 20° C. and at 100% relative humidity and then for 9 days at 20° C. and at 70-80% relative humidity.
The test was evaluated 10 days after the inoculation. 0% means an efficacy which corresponds to that of the control plants while an efficacy of 100% means that no disease was observed.

The subject of data set [4] is Xanthomonas campestris pv. campestris. In words: In vivo preventive test on Xanthomonas campestris pv. campestris (black rot on cabbage). The settings on record: Xanthomonas campestris, sprayed 72 hours before inoculation, evaluated 8 or 10 days after inoculation, read-out: efficacy; for pest or weed control at 500 ppm: 500 ppm of active ingredient; for pest or weed control at 31 ppm: 31 ppm of active ingredient. The method, then:
as §1, §3
After 72 hours, the plants were contaminated by spraying the leaves with an aqueous bacteria suspension of Xanthomonas campestris pv. campestris. The contaminated cabbage plants were incubated for 8 or 10 days at 27° C. at 95% relative humidity.
The test was evaluated 8 or 10 days after the inoculation. 0% means an efficacy which corresponds to that of the control plants while an efficacy of 100% means that no disease was observed.

In another data set the test system is Alternaria alternata. In words: Alternaria alternata in vitro cell test. The conditions noted are these: 120 h, 5 days incubation, read-out: efficacy (inhibition of fungal growth; no direct activity). It counts as cell-based. The protocol:
(§4) • Solvent: DMSO • Culture medium: 14.6 g anhydrous D-glucose (VWR), 7.1 g Mycological Peptone (Oxoid), 1.4 g granulated Yeast Extract (Merck), QSP 1 liter • Inoculum: spores suspension Fungicides were solubilized in DMSO and the solution used to prepare the required range of concentrations. The final concentration of DMSO used in the assay was ≤[…]1%. A spore suspension of A. alternata was prepared and diluted to the desired spore density. Fungicides were evaluated for their ability to inhibit spore germination and mycelium growth in liquid culture assay. The compounds were added in the desired concentration to the culture medium with spores. After 5 days incubation, fungi-toxicity of compounds was determined by spectrometric measurement of mycelium growth. Inhibition of fungal growth was determined by comparing the absorbance values in wells containing the fungicides with the absorbance in control wells without fungicides.

Data set [5] relates to Colletotrichum lindemuthianum. In words: Colletotrichum lindemuthianum in vitro cell test. It counts as cell-based. The settings on record: 144 h, 5 ppm of active ingredient, 6 days incubation, read-out: efficacy (inhibition of fungal growth; no direct activity). The protocol: as §4, with “of C. lindemuthianum” for “of A. alternata”, “inhibit spores” for “inhibit spore”, “After 6” for “After 5”

Data set [6] relates to Xanthomonas campestris pv. campestris. In words: Xanthomonas campestris pv. campestris in vitro cell test. The settings on record: 24 h of incubation, read-out: efficacy (inhibition of bacteria growth; no direct activity). It counts as cell-based. The method, then:
(§5) • Solvent: DMSO • Culture medium: LB broth medium (Luria Broth Miller) Sigma • Inoculum: bacteria suspension Compounds were solubilized in DMSO and the solution used to prepare the required range of concentrations. The final concentration of DMSO used in the assay was ≤1%. Inoculum was prepared from a pre-culture of bacteria grown in liquid medium and diluted to the desired optical density (OD). Compounds were evaluated for their ability to inhibit bacteria growth in liquid culture assay. The compounds were added in the desired concentrations to culture medium containing the bacteria suspension. After 24 h of incubation, the efficacy of compounds was determined by spectrometric measurement of bacteria growth. Inhibition was determined by comparing the absorbance values in wells containing the compounds with the absorbance in control wells without active ingredients.

Data set [7] deals with Pseudomonas syringae pv. tomato. In words: Pseudomonas syringae pv. tomato in vitro cell test. It counts as cell-based. The settings on record: 20 ppm of active ingredient, 24 h of incubation, read-out: efficacy (inhibition of bacteria growth; no direct activity). The protocol:
as §5

In turn, `COC(=O)CC[C@H](NC(=O)c1sc(Br)c(Br)c1C)C(=O)OC` [CMP16, reference compound] showed an efficacy in [1] (500 ppm of active ingredient) of 38%.
For `O=C(O)c1ccccc1O` [Salicylic acid, reference compound], the fold induction at 300 ppm in [2] came to 2.7.
As a reminder, the chromatographic logP is lipophilicity estimated from chromatographic retention. As to `COC(=O)C1(NC(=O)c2sc(Br)c(Br)c2C)CCC1` [I.131], the chromatographic logP in [3] came to 3.4. Further, in data set [2], the fold induction at 75 ppm was more than 2 and the fold induction at 300 ppm was more than 2. For the same molecule, the pest or weed control at 500 ppm in data set [1] (500 ppm of active ingredient) is 80 to 89%. In addition, in the data set on Peronospora parasitica, the pest or weed control at 31 ppm is 80 to 89%, the pest or weed control at 125 ppm lay in the range of 90 to 100% and the pest or weed control at 500 ppm fell in the range of 90 to 100%. In the data set on Uromyces appendiculatus, the pest or weed control at 125 ppm fell in the range of 90 to 100% and the pest or weed control at 500 ppm was in the range of 90 to 100%.
In [3], `CCOC(=O)C1(NC(=O)c2sc(Br)c(Br)c2C)CCC1` [I.132] returned a chromatographic logP of 3.81. Also, in [2], the fold induction at 75 ppm is more than 2 and the fold induction at 300 ppm was more than 2. For the same molecule, the pest or weed control at 500 ppm in data set [1] (500 ppm of active ingredient) fell in the range of 70 to 79%. In the data set with Peronospora parasitica, the pest or weed control at 31 ppm lay in the range of 80 to 89%, the pest or weed control at 125 ppm was 80 to 89% and the pest or weed control at 500 ppm lay within 90 to 100%. In the data set on Uromyces appendiculatus, the pest or weed control at 31 ppm lay within 90 to 100%, the pest or weed control at 125 ppm lay within 90 to 100% and the pest or weed control at 500 ppm is 90 to 100%.
In the case of `O=C(NC(C(=O)O)C1CC1)c1cc(Br)c(Br)s1` (stereo not drawn) [CMP13, reference compound], the pest or weed control at 125 ppm in the data set on Peronospora parasitica was 0%.
Turning to `O=C(NC(C(=O)O)C1CC1)c1sc(Br)c(Br)c1Br` (stereo not drawn) [CMP8, reference compound], the pest or weed control at 500 ppm in [4] was less than 10%.
Turning to `COC(=O)C1(NC(=O)c2cc(Br)c(Br)s2)CC1` [CMP5, reference compound], the pest or weed control at 125 ppm in [1] was 0%. The pest or weed control at 125 ppm with Peronospora parasitica is less than 40%. For the same molecule, in the data set with Uromyces appendiculatus, the pest or weed control at 31 ppm was found to be 0% and the pest or weed control at 500 ppm was less than 20%.
On to `O=C(NC1(C(=O)O)CC1)c1cc(Cl)c(Cl)s1` [CMP3, reference compound], for which, in the data set with Peronospora parasitica, the pest or weed control at 125 ppm was 0% and the pest or weed control at 500 ppm stood at 0%. Also, in data set [4], the pest or weed control at 31 ppm is less than 40% and the pest or weed control at 500 ppm turned out to be 0%.
As for `COC(=O)C(NC(=O)c1sc(Br)c(Br)c1Br)C1CC1` (stereo not drawn) [CMP14, reference compound], in the data set on Peronospora parasitica, the pest or weed control at 31 ppm was found to be 0% and the pest or weed control at 125 ppm was 0%.
As for `CCOC(=O)C1(NC(=O)c2cc(Cl)c(Cl)s2)CC1` [CMP6, reference compound], the pest or weed control at 31 ppm in [1] was less than 40%. For the same molecule, in the data set with Peronospora parasitica, the pest or weed control at 125 ppm worked out at 0% and the pest or weed control at 500 ppm was found to be 0%.
Molecule `CCCOC(=O)C1(NC(=O)c2sc(Br)c(Br)c2C)CCC1` [I.133] had a chromatographic logP in [3] of 4.23. Besides, in [2], the fold induction at 75 ppm is more than 2 and the fold induction at 300 ppm is more than 2. Also, in the data set on Peronospora parasitica, the pest or weed control at 31 ppm was 70 to 79%, the pest or weed control at 125 ppm lay in the range of 90 to 100% and the pest or weed control at 500 ppm fell in the range of 90 to 100%. Further, in the data set on Uromyces appendiculatus, the pest or weed control at 31 ppm lay in the range of 90 to 100%, the pest or weed control at 125 ppm was 90 to 100% and the pest or weed control at 500 ppm was in the range of 90 to 100%.
In the case of `CCOC(=O)CN(C)C(=O)c1sc(Br)c(Br)c1Br` [CMP15, reference compound], in [1] (500 ppm of active ingredient), the pest or weed control at 500 ppm is less than 40%. Besides, the pest or weed control at 125 ppm in the data set with Peronospora parasitica was less than 30%.
Take `CCCOC(=O)C1(NC(=O)c2cc(Br)c(Br)s2)CC1` [CMP7, reference compound]: the pest or weed control at 500 ppm with Peronospora parasitica was determined as 0%.
By inhibition is commonly meant the relative decrease from the control value, in per cent. In turn, `CCOC(=O)CN(C)C(=O)c1sc(Br)c(Br)c1C` [I.056] came in with a chromatographic logP in data set [3] of 3.23. In the data set with Peronospora parasitica, the pest or weed control at 125 ppm fell in the range of 80 to 89%. Further, the pest or weed control at 500 ppm in the data set with Peronospora parasitica lay in the range of 90 to 100%. The inhibition at 5 ppm (with Alternaria alternata (5 ppm of active ingredient); in [5]; in data set [6] (5 ppm of active ingredient)) was not above 30% each time. Besides, the inhibition at 20 ppm (with Alternaria alternata (20 ppm of active ingredient); in [6] (20 ppm of active ingredient); in data set [7]) was not above 30% in each case.
With `COC(=O)C1(NC(=O)c2cc(Cl)c(Cl)s2)CC1` [CMP4, reference compound], the pest or weed control at 31 ppm was 0% in data set [1], 0% in [4] and less than 40% in the data set with Uromyces appendiculatus. Further, the pest or weed control at 125 ppm in [1] is less than 40%; in the data set with Peronospora parasitica it was 0%. The pest or weed control at 500 ppm (with Peronospora parasitica; in [4]) was 0% in each case.
In turn, `CCCSC(=O)C1(NC(=O)c2sc(Br)c(Br)c2C)CC1` [I.134] came in with a chromatographic logP in [3] of 4.26. Besides, in data set [2], the fold induction at 75 ppm was more than 2 and the fold induction at 300 ppm is more than 2. The pest or weed control at 500 ppm with Peronospora parasitica is 80 to 89%. Also, the pest or weed control at 500 ppm with Uromyces appendiculatus lay within 90 to 100%.
